Key:
baboons = conditions: induced by 3-nitropropionic acid, Palfi et al. 1997; cited from earlier work
[1] = tested on: patients suffering from advanced Parkinson's disease with severe levodopa-induced dyskinesias
Protocol: The patients were given optimal anti-parkinsonian drug treatment during the three months prior to the clinical trial. Duration of study was six weeks. First two weeks served to accumulate baseline data. Patients filled up dyskinesias diaries in which they marked at every waking hour whether involuntary movements were present and their severity (mild/moderate and severe). […] The dose was then increased to 25 mg, b.i.d. for additional four days (once in the morning and once in the early afternoon). The dose as then further increased to two 50 mg tablets (total of 100 mg. daily) which the patients took for three additional weeks. They continued to fill up their dyskinesias diaries throughout the trial period.

SMILES: Nc1nc2ccc(OC(F)(F)F)cc2s1 [Riluzole, 2-amino-6-trifluoromethoxy benzothiazole]
- Abnormal motor movement (baboons): reduces various abnormal motor movement
- Adverse effects ([1]; riluzole up to 50 mg b.i.d.): no report of adverse-effects
- Tolerability ([1]; riluzole up to 50 mg b.i.d.): well-tolerated
- Efficacy of levodopa and other anti-parkinsonian drugs and total daily time spent in "on" periods ([1]; when patients took riluzole): no decrease
- Worsening of the parkinsonian signs and symptoms ([1]; when patients took riluzole): no worsening
